Experimental data as given in patent US11098032B2, “Pyran dervatives as CYP11A1 (cytochrome P450 monooxygenase 11A1) inhibitors” (ORION CORPORATION, priority 2016, dated 2021).

Biological target: T1, CYP11A1 (Homo sapiens, UniProt P05108)
T1 construct: human H295R adrenocortical carcinoma cell line was used as source of enzyme; endogenous in cells; host or cells: H295R human adrenocortical carcinoma cells
T1 sequence (P05108 40-521): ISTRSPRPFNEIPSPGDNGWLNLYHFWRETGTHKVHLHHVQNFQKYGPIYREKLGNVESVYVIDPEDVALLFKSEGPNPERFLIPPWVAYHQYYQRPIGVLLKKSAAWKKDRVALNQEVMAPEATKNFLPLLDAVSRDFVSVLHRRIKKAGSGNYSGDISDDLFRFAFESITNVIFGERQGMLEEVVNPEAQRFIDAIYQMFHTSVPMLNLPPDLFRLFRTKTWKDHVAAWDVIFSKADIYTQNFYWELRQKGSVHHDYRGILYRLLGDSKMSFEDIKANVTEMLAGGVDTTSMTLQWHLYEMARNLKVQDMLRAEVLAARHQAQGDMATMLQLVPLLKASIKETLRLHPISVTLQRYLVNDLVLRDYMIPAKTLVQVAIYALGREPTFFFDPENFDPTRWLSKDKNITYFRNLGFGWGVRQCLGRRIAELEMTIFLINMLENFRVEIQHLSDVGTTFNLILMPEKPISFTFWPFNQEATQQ
Assay: CYP11A1 inhibition: modified isocaproic acid release assay (IARA) in H295R cells
Format: cell-based
Settings: human H295R adrenocortical carcinoma cells treated three days, 3 nM [24,25-3H]-labelled cholesterol, 1% DMSO, 10 concentrations in duplicates; read-out: IC50 of the test compounds on CYP11A1 inhibition
Procedure, shortened: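 Cholesterol side-chain cleavage followed as tritiated isocaproic acid in charcoal-extracted medium, counted by scintillation. Substrate was 3 nM [24,25-3H]-cholesterol on human H295R cells exposed for three days to ten compound concentrations (duplicates, 1% DMSO); IC50 derived.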

SMILES | IC50 [nM]
O=C(N1CCCC1)N1CCC(COc2coc(CN3Cc4ccccc4C3)cc2=O)CC1 [Compound 215, 2-(Isoindolin-2-ylmethyl)-5-((1-(pyrrolidine-1-carbonyl)piperidin-4-yl)methoxy)-4H-pyran-4-one] | < 150
CS(=O)(=O)N1CCC(COc2coc(CN3Cc4ccc(C(F)(F)F)cc4C3)cc2=O)CC1 [Compound 184, 5-((1-(Methylsulfonyl)piperidin-4-yl)methoxy)-2-((5-(trifluoromethyl)isoindolin-2-yl)methyl)-4H-pyran-4-one] | < 150
O=c1cc(CN2Cc3ccccc3C2)occ1OCc1ccc(-n2cc(Br)cn2)cc1 [Compound 39, 5-((4-(4-Bromo-1H-pyrazol-1-yl)benzyl)oxy)-2-(isoindolin-2-ylmethyl)-4H-pyran-4-one] | 150 to 300
CC(=O)N1CCC(CCOc2coc(CN3Cc4ccccc4C3)cc2=O)CC1 [Compound 206, 5-(2-(1-Acetylpiperidin-4-yl)ethoxy)-2-(isoindolin-2-ylmethyl)-4H-pyran-4-one] | 301 to 2000
CS(=O)(=O)N1CCC(CCOc2coc(CN3Cc4ccccc4C3)cc2=O)CC1 [Compound 198, 2-(Isoindolin-2-ylmethyl)-5-(2-(1-(methylsulfonyl)piperidin-4-yl)ethoxy)-4H-pyran-4-one] | 150 to 300
CN=S(C)(=O)c1ccc(COc2coc(CN3Cc4ccccc4C3)cc2=O)cc1 (stereo not shown) [Compound 92, 5-((4-(N,S-Dimethylsulfonimidoyl)benzyl)oxy)-2-(isoindolin-2-ylmethyl)-4H-pyran-4-one] | < 150
CS(=O)(=O)NCc1ccc(COc2coc(CN3Cc4ccccc4C3)cc2=O)cc1 [Compound 113, N-(4-(((6-(Isoindolin-2-ylmethyl)-4-oxo-4H-pyran-3-yl)oxy)methyl)benzyl)-methanesulfonamide] | < 150
CS(=O)(=O)N1CCC(COc2coc(CN3Cc4ccc(C#N)cc4C3)cc2=O)CC1 [Compound 245a, 2-((5-((1-(methylsulfonyl)piperidin-4-yl)methoxy)-4-oxo-4H-pyran-2-yl)methyl)-isoindoline-5-carbonitrile] | 301 to 2000
C#CCNC(=O)c1ccc(COc2coc(CN3Cc4ccccc4C3)cc2=O)cc1 [Compound 141, 4-(((6-(Isoindolin-2-ylmethyl)-4-oxo-4H-pyran-3-yl)oxy)methyl)-N-(prop-2-yn-1-yl)benzamide] | 301 to 2000
CN(C)C(=O)c1ccc(CCOc2coc(CN3Cc4ccccc4C3)cc2=O)cc1 [Compound 112, 4-(2-((6-(Isoindolin-2-ylmethyl)-4-oxo-4H-pyran-3-yl)oxy)ethyl)-N,N-dimethylbenzamide] | 301 to 2000
CC(C)S(=O)(=O)N1CC=C(COc2coc(CN3Cc4ccccc4C3)cc2=O)CC1 [Compound 100, 2-(Isoindolin-2-ylmethyl)-5-((1-(isopropylsulfonyl)-1,2,3,6-tetrahydropyridin-4-yl)methoxy)-4H-pyran-4-one] | 150 to 300
O=C(c1ccco1)N1CCC(COc2coc(CN3Cc4ccccc4C3)cc2=O)CC1 [Compound 260, 5-((1-(Furan-2-carbonyl)piperidin-4-yl)methoxy)-2-(isoindolin-2-ylmethyl)-4H-pyran-4-one] | 150 to 300
CSc1ccc2c(c1)CN(Cc1cc(=O)c(OCc3ccc(S(C)(=O)=O)cc3)co1)C2 [Compound 280, 5-((4-(Methylsulfonyl)benzyl)oxy)-2-((5-(methylthio)isoindolin-2-yl)methyl)-4H-pyran-4-one] | 150 to 300
CC(C)N(C(=O)c1ccc(COc2coc(CN3Cc4ccccc4C3)cc2=O)cc1)C(C)C [Compound 134] | < 150
O=c1cc(CN2Cc3ccccc3C2)occ1OCC1CCS(=O)(=O)CC1 [Compound 35, 5-((1,1-Dioxidotetrahydro-2H-thiopyran-4-yl)methoxy)-2-(isoindolin-2-yl-methyl)-4H-pyran-4-one] | 301 to 2000
CS(=N)(=O)c1ccc(COc2coc(CN3Cc4ccc(OC(F)(F)F)cc4C3)cc2=O)cc1 (stereo not shown) [Compound 90, 5-((4-(S-Methylsulfonimidoyl)benzyl)oxy)-2-((5-(trifluoromethoxy)isoindolin-2-yl)methyl)-4H-pyran-4-one] | < 150
CS(=O)(=O)c1ccc(COc2coc(CN3Cc4cccc(F)c4C3)cc2=O)cc1 [Compound 27, 2-((4-Fluoroisoindolin-2-yl)methyl)-5-((4-(methylsulfonyl)benzyl)oxy)-4H-pyran-4-one] | 301 to 2000

SMILES | IC50 [nM]
N#Cc1ccc(COc2coc(CN3Cc4ccc(Br)cc4C3)cc2=O)cc1 [Compound 278, 4-((6-((5-Bromoisoindolin-2-yl)methyl)-4-oxo-4H-pyran-3-yloxy)methyl)benzonitrile] | < 150
CC(F)(F)C(=O)N1CCC(COc2coc(CN3Cc4ccccc4C3)cc2=O)CC1 [Compound 222, 5-((1-(2,2-Difluoropropanoyl)piperidin-4-yl)methoxy)-2-(isoindolin-2-ylmethyl)-4H-pyran-4-one] | < 150
CN(C)C(=O)c1ccc(COc2coc(CN3CCc4ccccc4C3)cc2=O)cc1F [Compound 78, 4-(((6-((3,4-Dihydroisoquinolin-2(1H)-yl)methyl)-4-oxo-4H-pyran-3-yl)oxy)-methyl)-2-fluoro-N,N-dimethylbenzamide] | 301 to 2000
CNC(=O)c1ccc(COc2coc(CN3CCc4ccccc4C3)cc2=O)cc1F [Compound 80, 4-(((6-((3,4-Dihydroisoquinolin-2(1H)-yl)methyl)-4-oxo-4H-pyran-3-yl)oxy)-methyl)-2-fluoro-N-methylbenzamide] | 301 to 2000
CC(C)(O)Cc1ccc(COc2coc(CN3CCc4ccccc4C3)cc2=O)cc1 [Compound 46, 2-((3,4-Dihydroisoquinolin-2(1H)-yl)methyl)-5-((4-(2-hydroxy-2-methyl-propyl)benzyl)oxy)-4H-pyran-4-one] | 150 to 300
Cc1ccc(S(=O)(=O)N=S2(=O)CCC(COc3coc(CN4Cc5ccccc5C4)cc3=O)CC2)cc1 (stereo not shown) [Compound 194, N-(4-(((6-(Isoindolin-2-ylmethyl)-4-oxo-4H-pyran-3-yl)oxy)methyl)-1-oxido-tetrahydro-2H-thiopyran-1-ylidene)-4-methylbenzenesulfonamide] | 150 to 300
CC(=O)OCC(C)(C)NC(=O)c1ccc(COc2coc(CN3Cc4ccccc4C3)cc2=O)cc1 [Compound 143, 2-(4-(((6-(Isoindolin-2-ylmethyl)-4-oxo-4H-pyran-3-yl)oxy)methyl)benzamido)-2-methylpropyl acetate] | 150 to 300
COCCS(=O)(=O)c1ccc(COc2coc(CN3Cc4ccc(F)cc4C3)cc2=O)cc1 [Compound 29, 2-((5-Fluoroisoindolin-2-yl)methyl)-5-((4-((2-methoxyethyl)sulfonyl)benzyl)oxy)-4H-pyran-4-one] | 150 to 300
CN(C)S(=O)(=O)c1ccc(COc2coc(CN3Cc4ccccc4C3)cc2=O)cc1 [Compound 10, 4-(((6-(Isoindolin-2-ylmethyl)-4-oxo-4H-pyran-3-yl)oxy)methyl)-N,N-di-methylbenzenesulfonamide] | < 150
O=C(C1CC1)N1CCC(COc2coc(CN3Cc4ccccc4C3)cc2=O)CC1 [Compound 226, 5-((1-(Cyclopropanecarbonyl)piperidin-4-yl)methoxy)-2-(isoindolin-2-ylmethyl)-4H-pyran-4-one] | < 150
CC(C)(C)OC(=O)N1CCC(CCOc2coc(CN3Cc4ccccc4C3)cc2=O)CC1 [Compound 197, tert-Butyl 4-(2-((6-(isoindolin-2-ylmethyl)-4-oxo-4H-pyran-3-yl)oxy)ethyl)-piperidine-1-carboxylate] | 301 to 2000
CC(C)(C)OC(=O)N1CCC(Oc2coc(CN3Cc4ccccc4C3)cc2=O)CC1 [Compound 203, tert-Butyl 4-((6-(isoindolin-2-ylmethyl)-4-oxo-4H-pyran-3-yl)oxy)piperidine-1-carboxylate] | 301 to 2000
CC(c1cc(=O)c(OCc2ccc(S(C)(=N)=O)cc2)co1)N1Cc2ccccc2C1 (stereo not shown) [Compound 91, 2-(1-(Isoindolin-2-yl)ethyl)-5-((4-(S-methylsulfonimidoyl)benzyl)oxy)-4H-pyran-4-one] | < 150
O=c1cc(CN2Cc3ccccc3C2)occ1OCc1ccc(S(=O)(=O)NCCO)cc1 [Compound 15, N-(2-Hydroxyethyl)-4-(((6-(isoindolin-2-ylmethyl)-4-oxo-4H-pyran-3-yl)-oxy)methyl)benzenesulfonamide] | < 150
CN(C)C(=O)c1ccc(COc2coc(CN3Cc4cccc(F)c4C3)cc2=O)cc1 [Compound 32, 4-(((6-((4-Fluoroisoindolin-2-yl)methyl)-4-oxo-4H-pyran-3-yl)oxy)methyl)-N,N-dimethylbenzamide] | 301 to 2000
CC(C)S(=N)(=O)c1ccc(COc2coc(CN3Cc4ccccc4C3)cc2=O)cc1 (stereo not shown) [Compound 103, 2-(Isoindolin-2-ylmethyl)-5-((4-(propan-2-ylsulfonimidoyl)benzyl)oxy)-4H-pyran-4-one] | < 150
O=C(c1ccc(COc2coc(CN3Cc4ccc(F)cc4C3)cc2=O)cc1)N1CC(F)(F)C1 [Compound 161, 5-((4-(3,3-Difluoroazetidine-1-carbonyl)benzyl)oxy)-2-((5-fluoroisoindolin-2-yl)methyl)-4H-pyran-4-one] | 150 to 300
